# Assay results from the supplement of paper PMC11451515.
# Test system: SEM cells
# Assay: cell viability relative to DMSO control; higher = less cytotoxic
# Settings: 48 h
# Summary of the method: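 Viability is a per-plate percentage relative to DMSO wells, with cell-free wells as background. CellTiter-Glo One luminescence was read after 48 h at 37°C on 1536-well plates (5 μl) of NOMO1 or SEM (500 cells/well) or P12-Ichikawa (1000 cells/well) leukemia cells. The cells had been adapted for at least four passages in each medium and pin-dosed with library compounds in DMSO from 47 μM to 0.79 nM in 11 threefold steps.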
# [1] = RPMI 5 mM glucose + 10% FBS, 0.000781 µM
# [2] = RPMI 5 mM glucose + 10% FBS, 0.00234 µM
# [3] = RPMI 5 mM glucose + 10% FBS, 0.00702 µM
# [4] = RPMI 5 mM glucose + 10% FBS, 0.0211 µM
# [5] = RPMI 5 mM glucose + 10% FBS, 0.0632 µM
# [6] = RPMI 5 mM glucose + 10% FBS, 0.19 µM
# [7] = RPMI 5 mM glucose + 10% FBS, 0.569 µM
# [8] = RPMI 5 mM glucose + 10% FBS, 1.71 µM
# [9] = RPMI 5 mM glucose + 10% FBS, 5.12 µM
# [10] = RPMI 5 mM glucose + 10% FBS, 15.4 µM
# [11] = RPMI 5 mM glucose + 10% FBS, 46.1 µM
# [12] = HPLM + 10% dialyzed FBS, 0.000781 µM
# [13] = HPLM + 10% dialyzed FBS, 0.00234 µM
# [14] = HPLM + 10% dialyzed FBS, 0.00702 µM
# [15] = HPLM + 10% dialyzed FBS, 0.0211 µM
# [16] = HPLM + 10% dialyzed FBS, 0.0632 µM
# [17] = HPLM + 10% dialyzed FBS, 0.19 µM
# [18] = HPLM + 10% dialyzed FBS, 0.569 µM
# [19] = HPLM + 10% dialyzed FBS, 1.71 µM
# [20] = HPLM + 10% dialyzed FBS, 5.12 µM
# [21] = HPLM + 10% dialyzed FBS, 15.4 µM
# [22] = HPLM + 10% dialyzed FBS, 46.1 µM
# [23] = RPMI 5 mM glucose + 10% dialyzed FBS, 0.000781 µM
# [24] = RPMI 5 mM glucose + 10% dialyzed FBS, 0.00234 µM
# [25] = RPMI 5 mM glucose + 10% dialyzed FBS, 0.00702 µM
# [26] = RPMI 5 mM glucose + 10% dialyzed FBS, 0.0211 µM
# [27] = RPMI 5 mM glucose + 10% dialyzed FBS, 0.0632 µM
# [28] = RPMI 5 mM glucose + 10% dialyzed FBS, 0.19 µM
# [29] = RPMI 5 mM glucose + 10% dialyzed FBS, 0.569 µM
# [30] = RPMI 5 mM glucose + 10% dialyzed FBS, 1.71 µM
# [31] = RPMI 5 mM glucose + 10% dialyzed FBS, 5.12 µM
# [32] = RPMI 5 mM glucose + 10% dialyzed FBS, 15.4 µM
# [33] = RPMI 5 mM glucose + 10% dialyzed FBS, 46.1 µM
SMILES,cell viability [1] [%],cell viability [2] [%],cell viability [3] [%],cell viability [4] [%],cell viability [5] [%],cell viability [6] [%],cell viability [7] [%],cell viability [8] [%],cell viability [9] [%],cell viability [10] [%],cell viability [11] [%],cell viability [12] [%],cell viability [13] [%],cell viability [14] [%],cell viability [15] [%],cell viability [16] [%],cell viability [17] [%],cell viability [18] [%],cell viability [19] [%],cell viability [20] [%],cell viability [21] [%],cell viability [22] [%],cell viability [23] [%],cell viability [24] [%],cell viability [25] [%],cell viability [26] [%],cell viability [27] [%],cell viability [28] [%],cell viability [29] [%],cell viability [30] [%],cell viability [31] [%],cell viability [32] [%],cell viability [33] [%]
O=C1NC(O)CCN1[C@@H]1O[C@H](CO)[C@@H](O)[C@H]1O (stereo partly drawn),114,125,123,111,114,125,117,111,115,134,122,,,,,,,,,,,,,,,,,,,,,,
COC(=O)[C@@H](N)CCCNC(=N)N[N+](=O)[O-],95.5,39.2,90.7,92.1,95.2,102,90.3,101,104,104,101,82,37.9,89.1,96.1,94.3,95.1,87.2,110,93.1,89.9,95.2,85.1,26.2,78,89.3,101,84.8,99,108,101,107,104
CCNc1cc(NC2CCC(O)CC2)nc(Nc2ccc3c(ccn3Cc3ccccc3)c2)n1 (stereo not drawn),,,,,,,,,,,,102,119,129,127,118,137,124,147,123,117,105,,,,,,,,,,,
NC(=O)c1cccc(N)c1,72.3,106,10.3,79.6,84.5,97.8,82.9,85.5,80.6,104,81.6,92.8,104,38.7,112,116,120,113,129,115,106,118,79.9,115,27.4,95.4,102,98.2,105,94.4,96.3,117,99.4
N\C1=N\C2=C(N=C[N]2COC(CO)CO)C(=O)N1,83.9,78.2,92.2,93.2,94.9,96.3,88.2,87.4,76,64.8,2.7,103,98.8,96.8,111,97,104,108,108,104,82.4,3.99,94.6,98.7,105,108,106,108,113,103,115,94.7,4.17
CCOC1=CC(=CC=C1C/2=N/[C@@](C)(C3=CC=C(Cl)C=C3)[C@](C)(N2C(=O)N4CCN(CC4)CC(=O)N5CCOCC5)C6=CC=C(Cl)C=C6)C(C)(C)C,,,,,,,,,,,,82.5,107,108,107,117,106,105,93.5,81.1,66,71,112,99.8,108,111,107,109,116,109,90.2,65.2,61.4
COC[C@H]1OC(=O)C2=COC3=C2[C@@]1(C)\C4=C(\[C@@H]5CC[C@H](O)[C@@]5(C)C[C@H]4OC(C)=O)C3=O,60.9,67.4,15.9,71.7,77.7,84.9,67.9,77.3,55.9,53.2,33.7,95.1,117,48.9,114,113,113,117,111,102,98.6,54.7,101,99,45.8,98.4,115,108,104,105,84.7,68.2,30.8
CN(C)c1ccc(Nc2nc(N)n(C(=O)c3c(F)cccc3F)n2)cc1,108,110,123,96.8,118,120,90.2,42.7,32.3,38,48.7,105,118,110,92.2,111,117,97.1,69,43.9,64.7,56.1,102,118,117,76.3,142,127,95.5,61.2,34.8,40.5,40.6
COc1cccc2c1C(=O)c1c(O)c3c(c(O)c1C2=O)C[C@@](O)(C(C)=O)C[C@@H]3O[C@H]1C[C@H](N)[C@H](O)[C@H](C)O1,82.3,98.4,91.9,77.3,40,21.8,7.4,7.93,7.89,7.75,6.05,74.5,83.9,85.3,90.3,55.3,25.3,7.3,7.11,6.71,7.18,5.34,88.6,89,96.2,84.3,59.2,29.4,9.48,8.29,8.52,8.22,6.01
CC(C)C[C@H](NC(=O)[C@H](Cc1ccccc1)NC(=O)c1cnccn1)B(O)O,90.9,102,113,38.4,6.07,3.74,3.71,3.19,2.6,1.56,0.977,82.8,88.2,95.9,46.6,5.6,4.11,3.83,3.37,2.58,1.95,1.04,90.4,84.7,84.5,31.1,6.17,4.26,4.12,3.78,3.01,2.1,1.1
CC(C)(C)NC(=O)[C@H]1CC[C@H]2[C@@H]3CC[C@H]4NC(=O)\C=C/[C@]4(C)[C@H]3CC[C@]12C,91.9,92.4,104,95.5,97.3,90.2,91.5,99.7,94,106,90.9,88.1,89.3,98.7,92,95.8,94.4,101,88.3,102,104,101,95.4,87.6,91.7,94.2,104,99.8,104,115,111,99.2,91.2
O=C(CCc1ccc(O)cc1)c1c(O)cc(O)cc1O[C@@H]1O[C@H](CO)[C@@H](O)[C@H](O)[C@H]1O,80.9,93.9,98.4,97.6,79.6,94.6,89.4,78.6,93.7,92.2,83.4,78.3,99.9,107,107,100,85.8,88.2,102,104,93.1,81.9,61.4,102,89.6,104,86.9,89.1,90.5,86.7,89.5,77.4,73.1
Cc1c(C(=O)Nc2cccc(C(F)(F)F)c2)cc(-c2ccccc2)n1CCCN1CCOCC1,89.6,106,119,116,110,101,122,101,115,93.6,50.9,99.2,112,106,105,111,96.3,111,99.5,90.3,93.6,62.8,104,111,121,113,121,115,109,109,95,92.6,45.8
CNCC(O)C(O)C(O)C(O)CO.O=C(O)c1ccc(-c2cc3cccnc3c(-c3ccc4nonc4c3)n2)cc1,100,107,109,108,115,108,115,111,103,108,88.8,104,103,99.1,115,114,115,114,131,112,92.7,92,98,97.6,120,103,108,101,112,103,127,87.6,65.8
CC(=O)[C@H]1CC[C@H]2[C@@H]3CCC4=CC(=O)CC[C@]4(C)[C@H]3CC[C@]12C,98,96.9,102,113,113,116,120,106,96.7,101,92.8,69,83.5,89.4,92.3,82.1,102,103,97,88.7,88.1,92.7,108,92.7,103,109,103,119,106,117,90.8,81.7,90.7
CN(C)CCCNC(=O)c1ccc(-c2cc(O)c3ncccc3c2)cc1,107,107,109,103,117,112,120,115,104,78.2,27.1,107,110,112,103,99.7,103,104,91.6,92.6,81.9,40.2,95.5,103,95.2,113,95.2,100,103,105,93.3,74.1,33
